For 14 compounds, MIC results are on record in ChEMBL document CHEMBL3872264, “Discovery of biphenyl imidazole derivatives as potent antifungal agents: Design, synthesis, and structure-activity relationship studies” (Bioorg Med Chem, 2017).

Values after ≈ are worked out from the molar mass of the structure shown.

Format in all cases: functional
One assay relates to Candida tropicalis. Nature of the assay: Anti-fungal activity against Candida tropicalis CGMCC 2.3739 by broth microdilution method.
In a further assay the test system is Cryptococcus neoformans. Nature of the assay: Anti-fungal activity against Cryptococcus neoformans CGMCC 2.3161 by broth microdilution method.
Assay [1] deals with Candida albicans. Nature of the assay: Anti-fungal activity against Candida albicans CPCC 400523 by broth microdilution method.
The subject of assay [2] is Candida albicans. Nature of the assay: Anti-fungal activity against Candida albicans SC5314 by broth microdilution method.
The test system of a further assay is Aspergillus fumigatus. Nature of the assay: Anti-fungal activity against Aspergillus fumigatus CGMCC 3.7795 by broth microdilution method.

Take `COC(=O)[C@H](Cn1ccnc1)NC(=O)c1ccc(-c2ccccc2)cc1`: the MIC in the assay on Candida tropicalis is 0.25 µg/mL (≈ 0.716 µM); in the assay with Cryptococcus neoformans, above 16 µg/mL; in the assay with Candida albicans [1], 2 µg/mL (≈ 5.72 µM); in the assay on Candida albicans [2], 2 µg/mL (≈ 5.72 µM); against Aspergillus fumigatus, above 16 µg/mL.
Turning to `CC(C)OC(=O)[C@H](Cn1ccnc1)NC(=O)c1ccc(-c2ccc(C(F)(F)F)cc2)cc1`, the minimum inhibitory concentration (MIC) against Candida tropicalis is 2 µg/mL (≈ 4.49 µM); against Cryptococcus neoformans, above 16 µg/mL; against Candida albicans [1], above 16 µg/mL; with Candida albicans [2], above 16 µg/mL; in the assay with Aspergillus fumigatus, above 16 µg/mL.
In the case of `CC(C)OC(=O)[C@H](Cn1ccnc1)NC(=O)c1ccc(-c2cccc(F)c2)cc1`, the minimal inhibitory concentration (MIC) was 0.0625 µg/mL (≈ 0.158 µM) with Candida tropicalis; 16 µg/mL (≈ 40.5 µM) against Cryptococcus neoformans; 0.25 µg/mL (≈ 0.632 µM) in the assay on Candida albicans [1]; 0.0625 µg/mL (≈ 0.158 µM) against Candida albicans [2]; above 16 µg/mL in the assay on Aspergillus fumigatus.
Regarding `CC(C)COC(=O)[C@H](Cn1cncn1)NC(=O)c1ccc(-c2ccccc2)cc1`, the minimal inhibitory concentration (MIC) with Candida tropicalis was 4 µg/mL (≈ 10.2 µM); against Cryptococcus neoformans it was 16 µg/mL (≈ 40.8 µM); against Candida albicans [1], 8 µg/mL (≈ 20.4 µM); with Candida albicans [2], 1 µg/mL (≈ 2.55 µM); in the assay with Aspergillus fumigatus, above 16 µg/mL.
Take `COC(=O)[C@H](Cn1ccnc1)NC(=O)c1ccc(-c2ccccc2F)cc1`: the MIC was 4 µg/mL (≈ 10.9 µM) against Candida tropicalis; 2 µg/mL (≈ 5.44 µM) against Cryptococcus neoformans; 16 µg/mL (≈ 43.6 µM) with Candida albicans [1]; 16 µg/mL (≈ 43.6 µM) against Candida albicans [2]; above 16 µg/mL with Aspergillus fumigatus.
Turning to `CC(C)OC(=O)[C@H](Cn1ccnc1)NC(=O)c1ccc(-c2ccc(Cl)cc2)cc1`, the MIC is 0.25 µg/mL (≈ 0.607 µM) against Candida tropicalis; 16 µg/mL (≈ 38.8 µM) against Cryptococcus neoformans; 1 µg/mL (≈ 2.43 µM) against Candida albicans [1]; 0.25 µg/mL (≈ 0.607 µM) in the assay with Candida albicans [2]; above 16 µg/mL with Aspergillus fumigatus.
On to `CC(C)COC(=O)[C@H](Cn1ccnc1)NC(=O)c1ccc(-c2ccccc2Cl)cc1`, for which the minimum inhibitory concentration (MIC) against Candida tropicalis was 0.5 µg/mL (≈ 1.17 µM); in the assay on Cryptococcus neoformans, 16 µg/mL (≈ 37.6 µM); against Candida albicans [1], 2 µg/mL (≈ 4.7 µM); with Candida albicans [2], 0.5 µg/mL (≈ 1.17 µM); with Aspergillus fumigatus, above 16 µg/mL.
Consider `CC(C)OC(=O)[C@H](Cn1ccnc1)NC(=O)c1ccc(-c2ccccc2Cl)cc1`, for which the MIC against Candida tropicalis is 0.5 µg/mL (≈ 1.21 µM); in the assay with Cryptococcus neoformans, 16 µg/mL (≈ 38.8 µM); with Candida albicans [1], 1 µg/mL (≈ 2.43 µM); in the assay with Candida albicans [2], 0.25 µg/mL (≈ 0.607 µM); in the assay with Aspergillus fumigatus, above 16 µg/mL.
For `CCCOC(=O)[C@H](Cn1ccnc1)NC(=O)c1ccc(-c2ccccc2F)cc1`, in that order: 0.0625 µg/mL (≈ 0.158 µM), 0.5 µg/mL (≈ 1.26 µM), 0.25 µg/mL (≈ 0.632 µM), 0.125 µg/mL (≈ 0.316 µM) and above 16 µg/mL.
For the compound `CC(C)COC(=O)[C@H](Cn1ccnc1)NC(=O)c1ccc(-c2ccccc2)cc1`, the MIC with Candida tropicalis is 0.0312 µg/mL (≈ 0.0798 µM); with Cryptococcus neoformans, 1 µg/mL (≈ 2.55 µM); against Candida albicans [1] it was 0.25 µg/mL (≈ 0.639 µM); against Candida albicans [2], 0.0312 µg/mL (≈ 0.0798 µM); in the assay on Aspergillus fumigatus, above 16 µg/mL.
For the compound `CC(C)OC(=O)[C@H](Cn1ccnc1)NC(=O)c1ccc(-c2cccc(C#N)c2)cc1`, the MIC in the assay on Candida tropicalis was 8 µg/mL (≈ 19.9 µM); against Cryptococcus neoformans, above 16 µg/mL; against Candida albicans [1], above 16 µg/mL; with Candida albicans [2] it was above 16 µg/mL; in the assay with Aspergillus fumigatus, above 16 µg/mL.
Consider `Cc1ccccc1-c1ccc(C(=O)N[C@@H](Cn2ccnc2)C(=O)OC(C)C)cc1`, for which the minimal inhibitory concentration (MIC) was 2 µg/mL (≈ 5.11 µM) in the assay on Candida tropicalis; 16 µg/mL (≈ 40.9 µM) with Cryptococcus neoformans; 2 µg/mL (≈ 5.11 µM) against Candida albicans [1]; 0.5 µg/mL (≈ 1.28 µM) with Candida albicans [2]; above 16 µg/mL in the assay with Aspergillus fumigatus.
As to `CC(C)OC(=O)[C@H](Cn1ccnc1)NC(=O)c1ccc(-c2ccc(F)c(F)c2)cc1`, the MIC is 8 µg/mL (≈ 19.4 µM) in the assay on Candida tropicalis; above 16 µg/mL in the assay on Cryptococcus neoformans; above 16 µg/mL against Candida albicans [1]; above 16 µg/mL against Candida albicans [2]; above 16 µg/mL in the assay with Aspergillus fumigatus.
For the compound `CCOC(=O)[C@H](Cn1ccnc1)NC(=O)c1ccc(-c2ccccc2F)cc1`, the MIC in the assay on Candida tropicalis is 0.125 µg/mL (≈ 0.328 µM); in the assay with Cryptococcus neoformans it was 1 µg/mL (≈ 2.62 µM); in the assay with Candida albicans [1] it was 1 µg/mL (≈ 2.62 µM); in the assay on Candida albicans [2] it was 0.25 µg/mL (≈ 0.655 µM); against Aspergillus fumigatus it was above 16 µg/mL.
